What all share (type): cell-based, human
Data set [1] relates to Polθ foci in G2, wild-type cells. Put plainly: Polθ foci in G2. The settings on record: aphidicolin 0.4 to 1.6 μM. The procedure: Cells grown on coverslips were fixed for 15 min in 2% paraformaldehyde, permeabilized for 10 min in 0.5% Triton X-100, blocked for 30 min in BSA 5%, 0.1% Triton X-100, immunostained for 1 h with primary antibodies, 45 min with secondary antibodies (Highly Cross-Adsorbed Secondary Antibodies Alexa Fluor, ThermoFisher Scientific) and mounted Vectashield mounting medium containing DAPI (Vector Laboratories). The same protocol was applied to mitotic cells, which were collected by shake off and centrifuged onto glass slides using a cytospin centrifuge (400g, 5 min) before fixation. […] Biotin azide-EdU click-it reaction was performed after fixation and permeabilization by incubating cells with a mix of Picolyl biotin, CuSO4, THPTA (Jena Bioscience) and sodium ascorbate in PBS for 30 min in the dark followed by an incubation with streptavidin conjugated Alex fluor 647 antibody (ThermoFisher Scientific) during 1 h at room temperature. Images were taken at 60× or 100× magnification using Upright Spinning disk Confocal Microscope (Roper/Zeiss) or at 40× magnification using DeltaVision (Deconvolution) Image Restoration Microscope. All images were taken with a Z-stack of 0.4 μM on 8 μM range around focus and projected using maximum intensity projection. Images were analysed using the Fiji software. […] Images were mounted in SoftWoRx and analysed using the Fiji software (1.53c). […]

In data set [2] the test system is RPE-1 cells expressing GFP–Polθ. Briefly: siRNA screen, cell count. The text has this:
(§1) The Human DDR siRNA library comprising 1,746 single siRNAs representing 582 human genes (3 siRNAs per gene) was obtained from ThermoFisher Scientific (A30089). For controls, siRNAs targeting GL2, kinesin family member 11 (KIF11) and GM130 were used to assess transfection efficacy and induced cell toxicity. FANCD2 siRNA ([…]dT, defined as FANCD2-ctrl in Supplementary Table 1) was used as a positive control inhibiting Polθ foci formation. RPE-1 cells expressing GFP–Polθ (250 cells per well in 384-well plates) were grown overnight. siRNAs were incubated 15 min with 0.05 μl Interferin reagent (Polyplus transfection) and Opti-MEM (ThermoFisher Scientific) prior to being transferred into each 384-well plate wells, to obtain a 10 nM final concentration. Cells were irradiated 72 h after transfection, at a dose of 5 Gy (226 s) with the CIXD irradiator (RadeXp platform, Institut Curie) and incubated at 37 °C, 5% CO2 for 2 h. […] Polθ was then identified as organelles in the nuclei area and quantified by the average intensity of pixels within the defined organelles region. […] Corrected values were normalized as follows: sample median and median absolute deviation (MAD) were calculated from the Interferin-treated population of each internal plate data points (named as Ref pop) and used to compute robust Z-scores[59] […]

The subject of data set [3] is Polθ foci formation in RPE-1 cells expressing GFP–Polθ. Put plainly: siRNA screen for ionizing radiation-induced Polθ foci formation. The settings on record: 10 nM siRNA, 72 h, then 5 Gy, 2 h; cells with at least 5 Polθ foci; median RZ score of the three siRNAs, three replicate experiments.
Source text: as §1

Take `C[C@@]1(CO)[C@H](O)CC[C@@]2(C)[C@H]1CC[C@H]1C[C@@H]3C[C@@]12CC[C@]3(O)CO` [aphidicolin, Aphidicolin]: the “Polθ foci in G2” value in data set [1] is listed as “Polθ foci in G2 could be induced by replication stress (aphidicolin treatment) in wild-type cells, to the level of that in BRCA2^−/− cells”.
With “GGAGAUUGAUGGUCUACUATdT (GGAGAUUGAUGGUCUACUATT; chemistry not given here) [fancd2-ctrl]”, the Toxicity threshold result in data set [2] was “Toxic”. For the same compound, the “Robust z score_corrected_Cells multi-foci_MultiFoci (%)” value in data set [3] was -7.14.

These data come from PMC10499603, “Polθ is phosphorylated by PLK1 to repair double-strand breaks in mitosis” (Nature, 2023).
